Test results from publication PMC5462828 (Scientific Reports, 2017).
Entries after “also recorded” stand apart in the source; their conditions may differ. Where two headings read alike, the source gives them in different places.

What was measured:
pig RXFP1 = system: pig RXFP1; parameters: method as in PMID 26866459; details: cited from earlier work
RXFP1 and GαoB = system: T1, RXFP1 and GαoB; experiment: Real-time kinetic BRET, RXFP1-Rluc8 / GαoB; assay type: cell-based, human; details: HEK293T co-expressing RXFP1-Rluc8, Gγ2-Venus, Gβ1, GαoB; H2 relaxin 100 nM, ML290 100 nM or 10 μM
T1 construct: forward primer encodes M-D-S-K-G-S-S, not the native RXFP1 start (N); expressed in transfected cells; host or cells: HEK293T cells stably expressing RXFP1-Rluc8, transiently co-transfected with the G protein subunits
Procedure: HEK293 cell were seeded in 6-well plates at a density of 600,000 cells per well and transfected with constructs encoding the tagged receptors and signalling proteins. 24 h later cells were harvested in HEPES-buffered phenol red-free medium containing 5% FBS and plated out in a white 96-well plate (Nunc) that was incubated at 37 °C under 5% CO2. BRET assays were performed 48 h after transfection as described previously, [52]. Medium was replaced with phenol-red-free-DMEM supplemented with 5% FBS plus 5 μM coelenterazine h. BRET measurements were made at 37 °C using the PHERAstar Omega plate reader with Omega software (BMG LABTECH, Germany). Filtered light emissions were simultaneously measured in each of the “donor wavelength window” (475 ± 15 nm for Rluc8 with coelenterazine h) and “acceptor wavelength window” (535 ± 15 nm for Venus). Cells were assayed before and after treatment with ligands or 5% FBS phenol-red-free-DMEM medium containing 0.01% w/v BSA (vehicle). The BRET signal was calculated as previously described.

RXFP1 [1] = molecular target: T2, RXFP1 (Homo sapiens, UniProt Q9HBX9); experiment: 125I-H2 relaxin radioligand binding in HEK-RXFP1 cells; parameters: expressed in transfected cells; host or cells: HEK293T / HEK293 cells stably expressing RXFP1 (HEK-RXFP1)
T2 sequence (Q9HBX9 1-757): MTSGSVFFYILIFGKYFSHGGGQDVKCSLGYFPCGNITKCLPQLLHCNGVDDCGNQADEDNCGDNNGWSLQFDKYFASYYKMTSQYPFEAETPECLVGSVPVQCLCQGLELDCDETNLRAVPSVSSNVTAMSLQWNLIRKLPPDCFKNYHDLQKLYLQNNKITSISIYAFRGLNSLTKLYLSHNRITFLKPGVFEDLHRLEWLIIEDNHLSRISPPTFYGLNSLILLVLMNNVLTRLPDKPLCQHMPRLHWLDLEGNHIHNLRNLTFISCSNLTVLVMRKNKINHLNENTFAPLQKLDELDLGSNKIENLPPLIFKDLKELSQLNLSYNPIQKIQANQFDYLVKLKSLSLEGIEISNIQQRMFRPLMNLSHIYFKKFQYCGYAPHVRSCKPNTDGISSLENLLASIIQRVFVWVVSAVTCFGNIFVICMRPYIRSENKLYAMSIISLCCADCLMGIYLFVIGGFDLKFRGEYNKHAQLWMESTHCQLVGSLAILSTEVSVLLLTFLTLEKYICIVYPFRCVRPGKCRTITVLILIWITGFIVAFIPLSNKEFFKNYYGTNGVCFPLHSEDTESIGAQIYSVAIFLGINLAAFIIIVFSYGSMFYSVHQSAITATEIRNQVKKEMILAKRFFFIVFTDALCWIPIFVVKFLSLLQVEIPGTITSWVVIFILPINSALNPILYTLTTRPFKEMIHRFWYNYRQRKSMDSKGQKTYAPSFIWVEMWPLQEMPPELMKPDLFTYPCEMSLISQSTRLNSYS
Procedure: Competition radioligand binding studies were performed in HEK-RXFP1 cells as described previously. […] After 90 min incubation at room temperature, the reaction was terminated with the removal of medium and washing with cold PBS. Cells were digested with 0.1 M NaOH and radioactivity counted on the γ-counter.

p-Smad3 = experiment: Smad3 phosphorylation assay in human cardiac fibroblasts; assay type: cell-based; details: 72 hours
Procedure: Cells were serum-starved in M199 medium for 24 hours prior sample collection. Cells were used between passages 1–4, while all experiments were performed four separate times in duplicate. Levels of p-Smad2 and p-Smad3 were detected using Sure-fire kits according to the manufacturer’s instructions (Perkin-Elmer, Australia).

[2] = parameters: method as in PMID 23764525; details: cited from earlier work
[3] = system: ML290-mediated cGMP accumulation; experiment: Effect of signalling pathway inhibitors on ML290-mediated cGMP accumulation in human primary vascular cells; assay type: cell-based; details: for Emax: Homo sapiens, read-out: ML290-mediated cGMP accumulation (maximum response), ML290 alone
Procedure: cAMP and cGMP accumulation was determined as previously described, [16]. Briefly, HEK293 cells were plated in 96-well plates (5 × 10^4 cells/well) and human primary cells were plated into 24-well plates (1 × 10^5 cells/well) and grown overnight to achieve a confluent monolayer. Prior to stimulation, HEK cells were serum-starved in DMEM containing 0.5% FBS v/v and primary cells were serum-starved in M199 medium for 4–6 hours. […] Levels of cAMP and cGMP were detected according to the manufacturer’s instructions (Perkin-Elmer, Australia).

RXFP1 [4] = molecular target: T2, RXFP1; experiment: cGMP accumulation in human primary vascular cells and cardiac fibroblasts; assay type: cell-based; details: for cGMP accumulation, maximum: DEA 10 μM, 5 min
Procedure: (§1) cAMP and cGMP accumulation was determined as previously described, [16]. Briefly, HEK293 cells were plated in 96-well plates (5 × 10^4 cells/well) and human primary cells were plated into 24-well plates (1 × 10^5 cells/well) and grown overnight to achieve a confluent monolayer. Prior to stimulation, HEK cells were serum-starved in DMEM containing 0.5% FBS v/v and primary cells were serum-starved in M199 medium for 4–6 hours. Where appropriate, cells were pre-incubated with mSIRK (5 μM, 30 min), mSIRK control peptide L9A (5 μM, 30 min), gallein (100 μM, 30 min), Wortmannin (100 nM, 30 min), NF023 (10 μM, 30 min) and NF449 (10 μM, 30 min). Levels of cAMP and cGMP were detected according to the manufacturer’s instructions (Perkin-Elmer, Australia).

RXFP1 [5] = experiment: as above; assay type: cell-based; details: HUAEC, cells that do not express cell surface RXFP1; 30 min
Procedure: as §1

CC(C)Oc1ccccc1C(=O)Nc1ccccc1C(=O)Nc1cccc(S(=O)(=O)C(F)(F)F)c1 [ML290, 2-Isopropoxy-N-(2-(3-(trifluoromethylsulfonyl)phenylcarbamoyl)phenyl) benzamide]
agonist action at pig RXFP1 (pig RXFP1): activates | ligand-induced BRET, RXFP1 - GαoB interaction (RXFP1 and GαoB): promoted interactions; also recorded: moved in the opposite direction to that to H2 relaxin | 125I-H2 relaxin specific binding to RXFP1 in presence of ML290 (RXFP1 [1]; 125I-H2 relaxin 100pM, increased from 102.7 ± […]): 135.2 ± 6.5% | effect on the affinity of H2 relaxin (RXFP1 [1]; ML290 1 μM): no significant effect | effect on p-Smad3 levels (p-Smad3; HCFs not treated with TGF-β1, H2 relaxin 0.1 μM, ML290 1 μM): neither H2 relaxin (0.1 μM) nor ML290 (1 μM) significantly affected | p-Smad3 in TGF-β1-stimulated cells (p-Smad3; HCFs, TGF-β1 2 ng/ml + H2 relaxin 0.1 μM or ML290 1 μM): 1.15 ± 0.05 fold/basal | microsomal stability [2]: high microsomal stability | ML290-mediated cGMP accumulation, ML290 alone ([3]; HUASMCs, control of NF449 and mSIRK experiments): 41.9 ± 4.8% | ML290-mediated cGMP accumulation, ML290 alone ([3]; HUASMCs, control of gallein and Wortmannin experiments): 32.1 ± 4.2% | ML290-mediated cGMP accumulation, ML290 alone ([3]; HUVSMCs, control of NF449 and mSIRK experiments): 31.4 ± 4.8% | ML290-mediated cGMP accumulation, ML290 alone ([3]; HUVSMCs, control of gallein and Wortmannin experiments): 30.4 ± 3.2% | Emax ([3]; HUVEC): 39.5 ± 4.8% | Emax [3]: 41 ± 4.5% | cGMP accumulation, maximum (RXFP1 [4]; HCAEC, 30 min): 40.6 ± 5.6 % of the DEA response | cGMP accumulation, maximum (RXFP1 [4]; HUASMC, 30 min): 21.0 ± 4.1 % of the DEA response | Emax (RXFP1 [4]; HUVEC, read-out: cGMP accumulation efficacy (Emax), HUVEC, 30 min): 23.5% | cGMP accumulation, maximum (RXFP1 [4]; HUVEC, 30 min): 23.5 ± 4.4 % of the DEA response | cGMP accumulation, maximum (RXFP1 [4]; HUVSMC, 30 min): 11.0 ± 3.4 % of the DEA response | Emax (RXFP1 [4]; read-out: cGMP accumulation efficacy (Emax), HCAEC, 30 min): 40.6% | Emax (RXFP1 [4]; read-out: cGMP accumulation efficacy (Emax), HCF): 45.3% | Emax (RXFP1 [4]; read-out: cGMP accumulation efficacy (Emax), HUASMC, 30 min): 21% | Emax (RXFP1 [4]; read-out: cGMP accumulation efficacy (Emax), HUVSMC, 30 min): 11% | cGMP accumulation (RXFP1 [5]): no effect
